The subject of experiment [1] is C57BL/6 mice. As to the kind of experiment: Tail suspension test (TST). The class given is in vivo. Particulars: for immobility time in TST: acute i.p. pretreatment, ST-2300 10 or 15 mg/kg, PIM 5–15 mg/kg, FLX 10 mg/kg, vs saline controls, C57BL/6 mice, 6 min. The procedure:
Inbred adult male C57BL/6 mice (aged 10–12 weeks and weighing 20–25 g) were obtained from the animal facility in the College of Medicine and Health Sciences, United Arab Emirates University. The animals were maintained in a separate air-conditioned room with controlled temperature and humidity (24 ± 2 °C and 55 ± 15%, respectively), with a 12 h light/dark cycle, and ad libitum to food and water. All the experiments were performed between 9.00 am and 3.00 pm. The procedures were approved by the Institutional Animal Ethics Committee of College of Medicine and Health Sciences/United Arab Emirates University (Approval No. ERA-2019-6010). To reduce the suffering of the animals, a minimum number of animals were used in this study, whereas the objectives were not compromised.
These experiments provide the first behavioral assessment of the ST-2300 in anxiety-like and depression-like behaviors in mice. All doses are expressed in terms of the free base of all test compounds. The drugs used in the current study were dissolved in saline and injected i.p. at a volume of 1 mL/kg. All experimental procedures were conducted in a blinded fashion in which the experimenter was uninformed about the specific treatment groups to which an animal group belonged. Saline, ST-2300 (5, 10, and 15 mg/kg), PIM (5, 10, and 15 mg/kg), FLX (10 mg/kg), RAM (10 mg/kg), and DZP (1 mg/kg) were injected i.p. 30–45 min before the beginning of the behavioral experiments.
This experimental protocol was followed as previously described, however with slight modifications. Each mouse was suspended on the edge of a rod 50 cm above a table top using adhesive Scotch tape placed approximately 1 cm from the tip of the tail. Tail climbing was prevented by passing the mouse’s tail through a small plastic cylinder prior to suspension, as described by Can et al.. The duration of immobility was manually scored for a 6 min observation period. Mice were considered immobile only when they hung down passively and were completely motionless. The parameter recorded was the number of seconds spent immobile.

Experiment [2] relates to D1R. More on the design: method as in earlier work. Particulars: ref 19 (Vanover et al.); cited from earlier work.
The subject of experiment [3] is D3R. On the set-up: method as in earlier work. Particulars: ref 19 (Vanover et al.); cited from earlier work.
The test system of experiment [4] is H1R. On the set-up: method as in earlier work. Particulars: ref 19 (Vanover et al.); cited from earlier work.
Experiment [5] has as its target T1, human serotonin 5-HT2A receptor (Homo sapiens, UniProt P28223).
T1 construct: host or cells: CHO-K1
In words: Radioligand displacement assay at 5-HT2A ([3H]-ketanserin, CHO-K1 cells). Particulars: CHO-K1 cells expressing human 5-HT2A, read-out: Ki ± SD (n), 5-HT2A. The class given is binding.

Experiment [6] deals with T2, hD1R (Homo sapiens, UniProt P21728).
T2 construct: expressed in transfected cells; host or cells: HEK293
T2 sequence (P21728 whole entry): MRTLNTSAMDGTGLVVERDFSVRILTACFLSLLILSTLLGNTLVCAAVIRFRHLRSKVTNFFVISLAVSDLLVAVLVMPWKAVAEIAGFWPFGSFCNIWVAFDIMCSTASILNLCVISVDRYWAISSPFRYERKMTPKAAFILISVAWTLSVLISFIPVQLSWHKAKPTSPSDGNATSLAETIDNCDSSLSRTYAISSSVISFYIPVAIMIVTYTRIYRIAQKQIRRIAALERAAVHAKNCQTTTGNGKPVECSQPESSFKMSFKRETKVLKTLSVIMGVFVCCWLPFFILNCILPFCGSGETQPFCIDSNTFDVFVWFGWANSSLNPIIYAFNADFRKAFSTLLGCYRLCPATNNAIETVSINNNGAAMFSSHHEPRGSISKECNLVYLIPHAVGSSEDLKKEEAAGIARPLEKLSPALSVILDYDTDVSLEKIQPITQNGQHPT
As to the kind of experiment: Radioligand displacement assay at dopamine D1R ([3H]-SCH23390, HEK293 cells). The class given is binding. Particulars: HEK293 cells stably expressing human D1R, read-out: Ki (n), D1R. The procedure:
hD1R affinity was determined according to the procedure of hD3R [43]. Membrane preparations of HEK293 cells stably expressing the hD1R were used with 20 µg/well. [^3H]-SCH23390 was used as radioligand in a concentration of 0.3 nM. Nonspecific binding was determined in the presence of 100 µM fluphenazine. The following steps were performed as describedbefore.

Experiment [7] concerns the target T3, human D2L (Homo sapiens, UniProt P14416).
T3 construct: expressed in transfected cells; host or cells: HEK293
In words: Radioligand displacement assay at dopamine D2R ([3H]-raclopride, HEK293 cells). The class given is binding. Particulars: HEK293 cells stably expressing human D2R, read-out: Ki ± SD (n), D2R.

Experiment [8] concerns the target T4, hD3R (Homo sapiens, UniProt P35462).
T4 construct: expressed in transfected cells; host or cells: CHO-K1
As to the kind of experiment: Radioligand displacement assay at dopamine D3R ([3H]-spiperone, CHO-K1 cells). The class given is binding. Particulars: CHO-K1 cells stably expressing human D3R, read-out: Ki (n), D3R. The procedure:
To determine the human D3R affinity, compounds and reference substances were tested in a [^3H]-spiperone competition binding assay as described by Bautista-Aguilera et al.. The assay was conducted with membrane preparations of CHO-K1 cells stably expressing hD3R. Membrane fractions (20 μg/well in a final volume of 0.2 mL binding buffer) were incubated with [^3H]-spiperone (0.2 nM) and the test compounds for 120 min at r.t. under shaking. Assays were run in triplicates with at least six appropriate concentrations between 0.1 nM and 100 µM for the test compound. Nonspecific binding was determined in the presence of 10 µM haloperidol.

In experiment [9] the target is T5, hH4R (Homo sapiens, UniProt P04899+Q9H3N8).
T5 construct: expressed in transfected cells; host or cells: Sf9 insect cells
T5 sequence (Q9H3N8+P04899 fused): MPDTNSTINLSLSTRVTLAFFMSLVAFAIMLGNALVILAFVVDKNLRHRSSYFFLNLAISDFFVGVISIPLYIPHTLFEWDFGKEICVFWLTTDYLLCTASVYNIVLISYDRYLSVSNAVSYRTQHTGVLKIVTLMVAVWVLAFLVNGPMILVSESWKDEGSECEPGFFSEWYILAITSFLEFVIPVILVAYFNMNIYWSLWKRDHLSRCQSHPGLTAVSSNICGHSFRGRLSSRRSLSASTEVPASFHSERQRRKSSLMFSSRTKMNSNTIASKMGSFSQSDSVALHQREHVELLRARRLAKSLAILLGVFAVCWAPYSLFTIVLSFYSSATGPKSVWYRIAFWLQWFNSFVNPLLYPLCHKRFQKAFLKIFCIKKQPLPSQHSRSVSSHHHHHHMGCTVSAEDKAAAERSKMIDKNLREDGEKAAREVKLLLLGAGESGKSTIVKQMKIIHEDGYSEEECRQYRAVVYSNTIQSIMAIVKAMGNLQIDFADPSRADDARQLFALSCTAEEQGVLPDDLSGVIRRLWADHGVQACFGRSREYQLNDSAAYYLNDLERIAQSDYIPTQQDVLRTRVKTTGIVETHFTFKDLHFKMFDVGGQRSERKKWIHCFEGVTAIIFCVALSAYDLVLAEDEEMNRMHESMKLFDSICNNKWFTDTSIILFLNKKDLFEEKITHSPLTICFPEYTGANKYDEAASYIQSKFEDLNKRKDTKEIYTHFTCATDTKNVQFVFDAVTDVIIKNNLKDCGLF
As to the kind of experiment: [3H]-histamine competition binding assay at histamine H4R (Sf9 membranes). Particulars: Sf9 cell membranes expressing human H4R with Gαi2 and Gβ1γ2, read-out: Ki (n), H4R. The procedure: To determine the human H4R affinity, compounds and reference structures were examined in a [^3H]-histamine dihydrochloride competition binding assay. Cell culture and membrane preparation of Sf9 cells co-expressing hH4R-Gαi2 fusion protein with Gβ1γ2 was prepared as described by Schneider and co-workers.
The competition binding assay has been performed as described previously by Sander, Kottke, and Schwed from the Stark Lab. Cell membranes were sedimented by 3 min centrifugation at 25 °C and […] and were resuspended in binding buffer. Competition binding experiments were carried out by incubating the membranes (40 µg/0.2 mL binding buffer) and [^3H]-histamine dihydrochloride (10 nM) with test compounds for 60 min at r.t. Assays were run in triplicates with four to seven appropriate concentrations between 0.1 nM and 100 µM for the test compound. Nonspecific binding was determined in the presence of 100 µM JNJ7777120. The following steps were performed as described before.

SMILES strings stand for the structures. Marks after values point to notes of the source that are not given here. A value given as a limit tells only on which side of the number the result lay.

T1 sequence (P28223 whole entry): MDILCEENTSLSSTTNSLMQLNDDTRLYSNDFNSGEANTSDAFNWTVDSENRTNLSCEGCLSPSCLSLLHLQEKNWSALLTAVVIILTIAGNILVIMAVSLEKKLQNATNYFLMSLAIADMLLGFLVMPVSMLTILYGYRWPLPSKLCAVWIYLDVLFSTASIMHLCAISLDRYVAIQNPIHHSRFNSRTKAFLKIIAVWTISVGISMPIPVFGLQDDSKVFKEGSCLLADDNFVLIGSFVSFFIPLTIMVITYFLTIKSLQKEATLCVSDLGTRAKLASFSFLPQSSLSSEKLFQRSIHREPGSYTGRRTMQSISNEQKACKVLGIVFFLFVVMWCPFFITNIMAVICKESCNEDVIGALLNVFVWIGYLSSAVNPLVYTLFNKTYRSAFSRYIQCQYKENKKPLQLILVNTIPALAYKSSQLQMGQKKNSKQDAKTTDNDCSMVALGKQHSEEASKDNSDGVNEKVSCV
T4 sequence (P35462 whole entry): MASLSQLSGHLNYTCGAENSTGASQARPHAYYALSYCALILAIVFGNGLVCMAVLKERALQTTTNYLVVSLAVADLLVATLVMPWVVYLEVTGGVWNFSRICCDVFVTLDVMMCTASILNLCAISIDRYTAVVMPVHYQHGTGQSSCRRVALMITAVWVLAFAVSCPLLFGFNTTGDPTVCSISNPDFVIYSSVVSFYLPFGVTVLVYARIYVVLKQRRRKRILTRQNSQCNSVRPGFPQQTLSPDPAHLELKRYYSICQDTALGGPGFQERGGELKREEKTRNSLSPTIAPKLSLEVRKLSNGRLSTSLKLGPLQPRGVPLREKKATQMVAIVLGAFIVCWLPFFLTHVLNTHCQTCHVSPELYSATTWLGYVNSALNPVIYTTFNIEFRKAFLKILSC
T3 sequence (P14416 whole entry): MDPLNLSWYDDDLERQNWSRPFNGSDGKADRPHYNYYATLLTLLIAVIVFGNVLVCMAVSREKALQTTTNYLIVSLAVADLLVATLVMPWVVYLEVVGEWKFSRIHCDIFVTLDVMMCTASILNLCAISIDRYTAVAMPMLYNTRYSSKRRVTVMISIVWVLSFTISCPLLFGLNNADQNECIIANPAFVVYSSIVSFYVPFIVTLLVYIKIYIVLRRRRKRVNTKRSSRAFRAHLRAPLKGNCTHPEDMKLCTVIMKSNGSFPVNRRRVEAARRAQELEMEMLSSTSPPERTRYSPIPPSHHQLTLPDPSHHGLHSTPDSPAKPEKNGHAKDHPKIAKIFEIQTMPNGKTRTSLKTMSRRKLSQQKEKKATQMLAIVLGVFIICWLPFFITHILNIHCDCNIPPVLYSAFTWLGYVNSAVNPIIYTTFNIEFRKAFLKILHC

As to `CC(C)COc1ccc(CNC(=O)N(Cc2ccc(F)cc2)C2CCN(C)CC2)cc1` [Pimavanserin, reference compound], the “immobility time in TST” value in [1] is recorded as “failed to affect the overall immobility time”. The “inhibition at 10 µM, D1R” value in [2] was “inhibition at 10 µM: <50% ^a”. In addition, the “inhibition at 10 µM, D3R” value in [3] is “inhibition at 10 µM: 60% ^a”. Moreover, the “inhibition at 10 µM, H1R” value in experiment [4] is reported as “inhibition at 10 µM: <50% ^a”.
In the case of `CN1CCC(N(Cc2ccc(F)cc2)C(=O)NCc2ccc(OCCCN3CCCCC3)cc2)CC1` [ST-2300, 1-(4-Fluorobenzyl)-1-(1-methylpiperidin-4-yl)-3-{4-[3-(piperidin-1-yl)propoxy]benzyl}urea], the inhibition constant Ki in experiment [5] is 1300 ± 331 nM; in [6] it was over 10 µM; in [7] it was over 10 µM; in experiment [8] it was over 10 µM; in [9] it was over 1000 nM. In experiment [1] (ST-2300 10 mg/kg i.p. co-administered with H3R agonist RAM 10 mg/kg i.p., vs ST-2300 alone), the “immobility time in TST, co-administration of RAM” value is reported as “reversed by systemic co-administration with the CNS-penetrant H3R agonist RAM”. Also, the “immobility time in TST” value in experiment [1] is listed as “significantly reduced the immobility time”.

The values are drawn from publication PMC9138994 (Biomolecules, 2022).
